Converted amounts (≈) assume the structure as drawn. Where two headings read alike, the source gives them in different places.
Tests used:
[1] = system: Propionibacterium acnes NCTC 737; assay: Minimum inhibitory concentration (MIC) assay, liquid medium; assay type: cell-based; conditions: for MIC: P. acnes NCTC 737
Procedure: (§1) (a) Minimum Inhibitory Concentration (MIC) Assay
(§2) This is a standard international method for quantitatively assessing the antimicrobial activity of a compound in a liquid medium. The method used a sterile 96-well microtitre plate, capable of holding about 200 μl of liquid per well. […] The culture medium was as described above.
(§3) After incubation, the microtitre plate was examined visually (with the aid of a light box) for cloudiness in each well, which would indicate microbial growth. The MIC value was recorded as the lowest concentration of test compound required to inhibit microbial growth, i.e., the lowest concentration for which the liquid in the well remained clear.
(§4) The assays were conducted in duplicate (minimum) and included both negative (culture medium with no micro-organisms) and positive (culture medium plus diluting solvent plus micro-organism) controls.
(§5) MIC, MBC and DDA assays, as described above, were carried out using the test compound t-butyl-p-hydroquinone (TBHQ) and a range of bismuth salts (all ex-Sigma Aldrich, UK).

[2] = system: P. acnes PRP panel strains; assay type: cell-based, Propionibacterium acnes; conditions: for MIC: liquid medium
[3] = system: P. acnes PRP panel strains; assay type: cell-based, Propionibacterium acnes; conditions: 200 μg per disc
[4] = system: P. granulosum panel strains; assay: MIC assay, liquid medium, panel of propionibacteria; assay type: cell-based, Propionibacterium granulosum
[5] = system: P. granulosum panel strains; assay: MBC assay, panel of propionibacteria
Procedure: (§8) This assay, normally carried out after an MIC assay, determines the minimum concentration of a compound that is lethal to the micro-organism being tested.
(§9) These samples were then individually sub-cultured on antibiotic-free agar medium, under the incubation conditions described above. Following incubation they were examined visually for microbial growth.

[6] = system: Por. gingivalis NCTC 11834; assay: MBC assay; assay type: cell-based, Porphyromonas gingivalis
Procedure: (§6) (b) Minimum Bactericidal Concentration (MBC) Assay
(§7) MIC and MBC assays, as described above, were carried out using the test compounds t-butyl-p-hydroquinone (TBHQ) and bismuth subsalicylate (both ex-Sigma Aldrich). The TBHQ was dissolved in ethanol and the bismuth subsalicylate in DMSO. All the experiments were conducted in triplicate.

[7] = system: P. granulosum panel strains; assay: Disc diffusion assay (DDA), panel of propionibacteria; assay type: cell-based, Propionibacterium granulosum; conditions: 200 μg per disc
[8] = system: Por. gingivalis NCTC 11834; assay: MIC assay, liquid medium; assay type: cell-based, Porphyromonas gingivalis
Procedure: as §1, §2, §3, §4, §7

[9] = system: P. acnes PRP panel strains; assay: MBC assay, panel of propionibacteria
Procedure: as §8, §9

[10] = system: Propionibacterium acnes NCTC 737; assay: Disc diffusion assay (DDA); assay type: cell-based; conditions: P. acnes NCTC 737, 200 μg per disc
Procedure: (d) Disc Diffusion Assay (DDA)
This is an internationally recognised standard method for qualitatively assessing the antimicrobial activity of a compound.
A sterile paper disc was impregnated with a sample of the test compound in a suitable solvent and 30 minutes allowed for the solvents to evaporate (where possible). The disc was then placed on an agar plate onto which the test micro-organism had been inoculated. The plate was then incubated under the conditions described above, following which it was examined visually for signs of microbial growth. […] The diameter of this zone of “inhibition” was measured using a ProtoCOL™ automated zone sizer (Synbiosis, Cambridge, UK).
The TBHQ was dissolved in ethanol and the bismuth salts in DMSO.
All the (S)DDA experiments were conducted in triplicate.
DDA assays, as described above, were carried out using each of the test compounds individually. The quinone/bismuth salt combinations were then subjected to the SDDA assay described above.
The quinones and bismuth salts were all dissolved in DMSO.

[11] = system: Propionibacterium acnes NCTC 737; assay: Minimum bactericidal concentration (MBC) assay; assay type: cell-based; conditions: P. acnes NCTC 737
Procedure: as §6, §5

[12] = P. acnes PRP-002, resistance phenotype Tet/MLS
[13] = P. acnes PRP-003, resistance phenotype Tet
[14] = P. acnes PRP-004, resistance phenotype Tet
[15] = P. acnes PRP-007, resistance phenotype Clin
[16] = P. acnes PRP-008, resistance phenotype Clin
[17] = P. acnes PRP-010, resistance phenotype MLSK
[18] = P. acnes PRP-017, resistance phenotype MLS
[19] = P. acnes PRP-023, resistance phenotype MLSK
[20] = P. acnes PRP-026, resistance phenotype MLS
[21] = P. acnes PRP-039, resistance phenotype Tet/MLS
[22] = P. acnes PRP-046, resistance phenotype None
[23] = P. acnes PRP-053, resistance phenotype Tet/MLS
[24] = P. acnes PRP-059, resistance phenotype MLS
[25] = P. acnes PRP-068, resistance phenotype Ery
[26] = P. acnes PRP-101, resistance phenotype Tet/MLS
[27] = P. acnes PRP-102, resistance phenotype Tet/MLS
[28] = P. granulosum NCTC 11865, resistance phenotype None
[29] = P. granulosum PRP-005, resistance phenotype MLSK
[30] = P. granulosum PRP-006, resistance phenotype MLS
[31] = P. granulosum PRP-019, resistance phenotype MLSK
[32] = P. granulosum PRP-021, resistance phenotype MLS
[33] = P. granulosum PRP-043, resistance phenotype MLS
[34] = P. granulosum PRP-044, resistance phenotype MLS
[35] = P. granulosum PRP-055, resistance phenotype None

CC(C)(C)c1cc(O)ccc1O [TBHQ, t-butyl-p-hydroquinone]
MIC ([1]; Table 1): 7.8 µg/mL (≈ 46.9 µM)
MIC ([1]; separate experiment, Table 3): 7.8 µg/mL (≈ 46.9 µM)
activity against P. acnes NCTC 737 (in words) ([1]; compound alone, data of Tables 1 and 2): active
MIC [2, 12]: 3.9 µg/mL (≈ 23.5 µM)
MIC [2, 13]: 7.8 µg/mL (≈ 46.9 µM)
MIC [2, 14]: 1.95 µg/mL (≈ 11.7 µM)
MIC [2, 15]: 3.9 µg/mL (≈ 23.5 µM)
MIC [2, 16]: 3.9 µg/mL (≈ 23.5 µM)
MIC [2, 17]: 3.9 µg/mL (≈ 23.5 µM)
MIC [2, 18]: 3.9 µg/mL (≈ 23.5 µM)
MIC [2, 19]: 3.9 µg/mL (≈ 23.5 µM)
MIC [2, 20]: 3.9 µg/mL (≈ 23.5 µM)
MIC [2, 21]: 3.9 µg/mL (≈ 23.5 µM)
MIC [2, 22]: 1.95 µg/mL (≈ 11.7 µM)
MIC [2, 23]: 3.9 µg/mL (≈ 23.5 µM)
MIC [2, 24]: 3.9 µg/mL (≈ 23.5 µM)
MIC [2, 25]: 3.9 µg/mL (≈ 23.5 µM)
MIC [2, 26]: 3.9 µg/mL (≈ 23.5 µM)
MIC [2, 27]: 7.8 µg/mL (≈ 46.9 µM)
activity against the panel of propionibacteria (in words) ([2]; P. acnes and P. granulosum strains of Tables 6 and 7): active against all of the propionibacterial strains tested
DDA (zone diameter) ([3]; P. acnes PRP-002): 18.12 mm
DDA (zone diameter) ([3]; P. acnes PRP-003): 18.12 mm
DDA (zone diameter) ([3]; P. acnes PRP-004): 19.88 mm
DDA (zone diameter) ([3]; P. acnes PRP-007): 12.74 mm
DDA (zone diameter) ([3]; P. acnes PRP-008): 17.92 mm
DDA (zone diameter) ([3]; P. acnes PRP-010): 18.54 mm
DDA (zone diameter) ([3]; P. acnes PRP-017): 13.98 mm
DDA (zone diameter) ([3]; P. acnes PRP-023): 18.54 mm
DDA (zone diameter) ([3]; P. acnes PRP-026): 13.98 mm
DDA (zone diameter) ([3]; P. acnes PRP-039): 17.71 mm
DDA (zone diameter) ([3]; P. acnes PRP-046): 20.71 mm
DDA (zone diameter) ([3]; P. acnes PRP-053): 17.09 mm
DDA (zone diameter) ([3]; P. acnes PRP-059): 19.88 mm
DDA (zone diameter) ([3]; P. acnes PRP-068): 16.78 mm
DDA (zone diameter) ([3]; P. acnes PRP-101): 12.84 mm
DDA (zone diameter) ([3]; P. acnes PRP-102): 14.50 mm
MIC [4, 28]: 3.9 µg/mL (≈ 23.5 µM)
MIC [4, 29]: 62.5 µg/mL (≈ 376 µM)
MIC [4, 30]: 7.8 µg/mL (≈ 46.9 µM)
MIC [4, 31]: 31.25 µg/mL (≈ 188 µM)
MIC [4, 32]: 15.6 µg/mL (≈ 93.9 µM)
MIC [4, 33]: 15.6 µg/mL (≈ 93.9 µM)
MIC [4, 34]: 15.6 µg/mL (≈ 93.9 µM)
MIC [4, 35]: 3.9 µg/mL (≈ 23.5 µM)
MBC [5, 28]: 7.8 µg/mL (≈ 46.9 µM)
MBC [5, 29]: 62.5 µg/mL (≈ 376 µM)
MBC [5, 30]: 7.8 µg/mL (≈ 46.9 µM)
MBC [5, 31]: 31.25 µg/mL (≈ 188 µM)
MBC [5, 32]: 31.25 µg/mL (≈ 188 µM)
MBC [5, 33]: 15.6 µg/mL (≈ 93.9 µM)
MBC [5, 34]: 31.25 µg/mL (≈ 188 µM)
MBC [5, 35]: 7.8 µg/mL (≈ 46.9 µM)
MBC [6]: 0.49 µg/mL (≈ 2.95 µM)
MIC/MBC ratio [6]: <1
DDA (zone diameter) ([7]; P. granulosum NCTC 11865): 11.50 mm
DDA (zone diameter) ([7]; P. granulosum PRP-005): 10.67 mm
DDA (zone diameter) ([7]; P. granulosum PRP-006): 9.42 mm
DDA (zone diameter) ([7]; P. granulosum PRP-019): 10.36 mm
DDA (zone diameter) ([7]; P. granulosum PRP-021): 0.00 mm
DDA (zone diameter) ([7]; P. granulosum PRP-043): 0.00 mm
DDA (zone diameter) ([7]; P. granulosum PRP-044): 0.00 mm
DDA (zone diameter) ([7]; P. granulosum PRP-055): 18.02 mm
MIC ([8]; Por. gingivalis NCTC 11834): <0.49 µg/mL
activity against Por. gingivalis NCTC 11834 (in words) ([8]; compound alone, data of Table 8): active
MBC [9, 12]: 7.8 µg/mL (≈ 46.9 µM)
MBC [9, 13]: 7.8 µg/mL (≈ 46.9 µM)
MBC [9, 14]: 7.8 µg/mL (≈ 46.9 µM)
MBC [9, 15]: 7.8 µg/mL (≈ 46.9 µM)
MBC [9, 16]: 7.8 µg/mL (≈ 46.9 µM)
MBC [9, 17]: 15.6 µg/mL (≈ 93.9 µM)
MBC [9, 18]: 7.8 µg/mL (≈ 46.9 µM)
MBC [9, 19]: 7.8 µg/mL (≈ 46.9 µM)
MBC [9, 20]: 7.8 µg/mL (≈ 46.9 µM)
MBC [9, 21]: 7.8 µg/mL (≈ 46.9 µM)
MBC [9, 22]: 7.8 µg/mL (≈ 46.9 µM)
MBC [9, 23]: 7.8 µg/mL (≈ 46.9 µM)
MBC [9, 24]: 7.8 µg/mL (≈ 46.9 µM)
MBC [9, 25]: 7.8 µg/mL (≈ 46.9 µM)
MBC [9, 26]: 7.8 µg/mL (≈ 46.9 µM)
MBC [9, 27]: 15.6 µg/mL (≈ 93.9 µM)
DDA (zone of inhibition diameter) ([10]; Table 2): 11.04 mm
DDA (zone of inhibition diameter) ([10]; separate experiment, Table 4): 14.68 mm
MBC ([11]; Table 1): 7.8 µg/mL (≈ 46.9 µM)
MIC/MBC ratio ([11]; Table 1): 1
MBC ([11]; separate experiment, Table 3): 7.8 µg/mL (≈ 46.9 µM)
MIC/MBC ratio ([11]; separate experiment, Table 3): 1
